From the NIST ThermoML archive (doi:10.1016/j.jct.2015.07.024) come the findings set out here.

The vapor or sublimation pressure is the equilibrium pressure above the liquid or solid.

Molecules are shown by their SMILES. Numbers after ± are expanded uncertainties.

For the series the following is noted: Liquid, Closed cell (Static) method.

With `CCOC(C)=O` [ethyl acetate], the “vapor or sublimation pressure” value was determined as 205.7 ± 9 kPa (373 K), 557.1 ± 23 kPa (412.8 K) and 1222.7 ± 49 kPa (452.3 K).

For the compound `CCOC(=O)OCC` [diethyl carbonate], the “vapor or sublimation pressure” value runs as follows: (373 K) 45.1 ± 2.1 kPa; (412.5 K) 143 ± 5.9 kPa; (452.2 K) 361 ± 15 kPa.

Consider `CC(=O)Oc1ccccc1` [phenyl ethanoate], for which the “vapor or sublimation pressure” value reads like this: (373.2 K) 3.5 ± 0.2 kPa; (413.2 K) 18.2 ± 0.8 kPa; (453.2 K) 66.1 ± 2.7 kPa.
